{
  "source": "patent US7462599B2",
  "about": "“Use of effectors of glutaminyl and glutamate cyclases” (Probiodrug AG, priority 2003, dated 2008)",
  "key": {"[1]": {"molecular_target": "T1, QC (Homo sapiens, UniProt Q16769)", "T1 sequence (Q16769 29-361)": "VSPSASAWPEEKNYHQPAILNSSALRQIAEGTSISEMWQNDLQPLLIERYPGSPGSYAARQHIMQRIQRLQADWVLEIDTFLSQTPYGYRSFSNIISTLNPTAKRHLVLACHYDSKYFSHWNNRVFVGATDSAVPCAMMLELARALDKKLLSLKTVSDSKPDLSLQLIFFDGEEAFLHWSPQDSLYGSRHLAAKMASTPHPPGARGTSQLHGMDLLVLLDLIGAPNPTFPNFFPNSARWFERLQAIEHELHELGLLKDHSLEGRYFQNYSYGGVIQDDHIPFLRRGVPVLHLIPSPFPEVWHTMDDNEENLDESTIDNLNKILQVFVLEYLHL", "assay": "Enzyme inactivation/reactivation of human QC", "assay_type": "biochemical", "design": "The cDNA of the mature QC starting with codon 38 was fused in frame with the plasmid encoded 6× histidine tag; 6x histidine tag; made in house; host or cells: Pichia pastoris X33 (pPICZαB); also E. coli M15 (pQE-31)"}, "[2]": {"system": "DP IV and QC", "assay": "Consecutive catalysis of DP IV and QC in crude pituitary homogenate with added DPIV, MALDI-TOF", "assay_type": "biochemical, porcine", "conditions": "inhibitor added", "experimental": "(§1) Matrix-assisted laser desorption/ionization mass spectrometry was carried out using the Hewlett-Packard G2025 LD-TOF System with a linear time of flight analyzer. […] Samples (5 μl) were mixed with equal volumes of the matrix solution. For matrix solution we used DHAP/DAHC, prepared by solving 30 mg 2′,6′-dihydroxyacetophenone (Aldrich) and 44 mg diammonium hydrogen citrate (Fluka) in 1 ml acetonitrile/0.1% TFA in water (1/1, v/v). A small volume (≈1 μl) of the matrix-analyte-mixture was transferred to a probe tip and immediately evaporated in a vacuum chamber (Hewlett-Packard G2024A sample prep accessory) to ensure rapid and homogeneous sample crystallization."}, "[3]": {"system": "mammalian QC", "conditions": "Busby et al. 1987; cited from earlier work"}, "[4]": {"system": "Glutaminyl cyclase present in the homogenate of porcine pituitary", "assay": "Cyclization of Gln3-Aβ(3-11)a by QC in pituitary homogenate, MALDI-TOF", "assay_type": "biochemical", "experimental": "as §1"}, "[5]": {"molecular_target": "T2, DP IV (porcine kidney) (Sus scrofa, UniProt P22411)", "T2 construct": "purified DP IV (porcine kidney); from tissue; host or cells: porcine kidney", "T2 sequence (P22411 whole entry)": "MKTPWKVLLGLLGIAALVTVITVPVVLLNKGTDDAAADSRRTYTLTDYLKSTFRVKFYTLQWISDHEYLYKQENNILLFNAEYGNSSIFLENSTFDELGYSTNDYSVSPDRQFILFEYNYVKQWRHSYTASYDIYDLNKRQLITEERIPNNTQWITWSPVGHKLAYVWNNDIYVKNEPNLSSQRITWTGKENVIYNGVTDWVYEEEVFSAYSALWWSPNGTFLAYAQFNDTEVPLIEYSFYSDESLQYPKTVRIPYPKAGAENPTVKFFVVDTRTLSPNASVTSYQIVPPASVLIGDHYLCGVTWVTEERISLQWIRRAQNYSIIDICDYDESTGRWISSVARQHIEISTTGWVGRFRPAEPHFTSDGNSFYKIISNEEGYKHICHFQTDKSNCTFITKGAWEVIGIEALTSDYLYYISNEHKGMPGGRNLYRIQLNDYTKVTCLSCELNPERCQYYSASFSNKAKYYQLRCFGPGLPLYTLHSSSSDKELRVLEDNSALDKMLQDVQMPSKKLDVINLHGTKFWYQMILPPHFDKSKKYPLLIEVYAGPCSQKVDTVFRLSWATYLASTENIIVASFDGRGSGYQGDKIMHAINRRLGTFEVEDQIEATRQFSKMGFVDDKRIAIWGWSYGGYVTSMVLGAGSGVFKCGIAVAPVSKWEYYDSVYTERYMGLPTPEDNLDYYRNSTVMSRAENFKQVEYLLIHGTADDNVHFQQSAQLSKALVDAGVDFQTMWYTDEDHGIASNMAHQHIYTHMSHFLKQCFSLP", "assay": "DP IV cleavage of Gln3-Aβ(1-11)a, MALDI-TOF", "assay_type": "biochemical", "experimental": "as §1"}, "[6]": {"molecular_target": "T1, QC", "assay": "Long-term Glu1-cyclization of Aβ-derived peptides by recombinant human QC, MALDI-TOF", "assay_type": "biochemical", "design": "The cDNA of the mature QC starting with codon 38 was fused in frame with the plasmid encoded 6× histidine tag; 6x histidine tag; made in house; host or cells: Pichia pastoris X33 (pPICZαB); also E. coli M15 (pQE-31)", "conditions": "5 mM benzimidazole", "from_the_text": "At different times, samples were removed from the assay tube, peptides extracted using ZipTips (Millipore) according to the manufacturer's recommendations, mixed with matrix solution (1:1 v/v) and subsequently the mass spectra recorded."}, "[7]": {"assay": "Solubility in aqueous solution"}, "[8]": {"molecular_target": "T1, QC", "assay": "LC/MS analysis of QC-catalyzed pyroglutamate formation", "assay_type": "biochemical"}},
  "note": "Entries after “also recorded” stand apart in the source; their conditions may differ. Like-named read-outs stand apart in the source and are kept apart here. Ends that are not written are not given here.",
  "data": [
    {"molecule": "c1cnc2c(c1)ccc1cccnc12", "note": "[1,10-phenanthroline]", "values": [
      {"measurement": "inhibition of human QC catalyzed substrate cyclization by chelators", "setting": "[1]", "result": "inhibited"},
      {"measurement": "inactivation of human QC after extensive dialysis", "setting": "[1]; 5 mM inactivating agent", "result": "almost completely inactivated"},
      {"measurement": "[pGlu3]Aβ(3-11)a formation from Gln3-Aβ(1-11)a in presence of DP IV and QC", "setting": "[2]", "result": "inhibition"},
      {"measurement": "inhibition of mammalian QC", "setting": "[3]", "result": "Inhibition of a mammalian QC was only detected"},
      {"measurement": "inhibition of formation of [pGlu3]Aβ(3-11)a from Gln3-Aβ(3-11)a", "setting": "[4]", "result": "inhibited; also recorded: inhibition of the formation"}
    ]},
    {"molecule": "CC(C)[C@H](N)C(=O)N1CCCC1", "note": "[Val-Pyrr, Val-Pyrrolidide]", "values": [
      {"measurement": "prevention of DP IV cleavage of Gln3-Aβ(1-11)a", "setting": "[5]", "result": "completely prevented"},
      {"measurement": "prevention of DP IV cleavage of Gln3-Aβ(1-11)a", "setting": "[5]; listed as Val-Pyrrolidide", "result": "prevention of the cleavage"},
      {"measurement": "[pGlu3]Aβ(3-11)a formation from Gln3-Aβ(1-11)a in presence of DP IV and QC", "setting": "[2]", "result": "reduction"}
    ]},
    {"molecule": "c1ccc2[nH]cnc2c1", "note": "[benzimidazole]", "values": [
      {"measurement": "suppression of [pGlu3]Aβ(3-11)a / [pGlu3]Aβ(3-21)a formation", "setting": "[6]", "result": "suppressed"},
      {"measurement": "suppression of [pGlu3]Aβ(3-11)a / [pGlu3]Aβ(3-21)a formation", "setting": "[6]; listed as Benzimidazole", "result": "suppressing the formation"}
    ]},
    {"molecule": "QFRHDSGYE-NH2 [[Gln^3]Aβ3-11a]", "values": [
      {"measurement": "solubility in aqueous solution", "setting": "[7]", "result": "better solubility"}
    ]},
    {"molecule": "[Gln^5]-substance P(5-11): substance P fragment 5-11 with N-terminal Gln^5 after cleavage of residues 1-4 (QQFFGLM; ends and bridges not checked)", "values": [
      {"measurement": "formation of N-terminal pyroglutamate catalyzed by QC", "setting": "[8]", "result": "transformed by QC"}
    ]}
  ]
}
